Test results published in patent US20200131177A1, “PESTICIDALLY ACTIVE HETEROCYCLIC DERIVATIVES WITH SULFUR CONTAINING SUBSTITUENTS” (SYNGENTA PARTICIPATIONS AG, priority 2017, published 2020).

How the values were obtained:
Assay type in all cases: in vivo
[1] = test system: Spodoptera littoralis (Egyptian Cotton Leaf Worm); experiment: Example B1: Spodoptera littoralis, sprayed cotton leaf discs; conditions: foliar, 72 h, application rate of 200 ppm, L1 larvae, 3 days after infestation, read-out: control (mortality, anti-feeding effect or growth inhibition)
Method: Example B1: Spodoptera littoralis (Egyptian Cotton Leaf Worm)
Cotton leaf discs were placed onto agar in 24-well microtiter plates and sprayed with aqueous test solutions prepared from 10′000 ppm DMSO stock solutions. After drying the leaf discs were infested with five L1 larvae. The samples were assessed for mortality, anti-feeding effect, and growth inhibition in comparison to untreated samples 3 days after infestation. Control of Spodoptera littoralis by a test sample is given when at least one of the categories mortality, anti-feedant effect, and growth inhibition is higher than the untreated sample.

[2] = test system: Plutella xylostella (Diamond Back Moth); experiment: Example B3: Plutella xylostella, treated artificial diet; conditions: 120 h, application rate of 200 ppm, L2 larvae, 5 days after infestation, read-out: effect in at least one of the two categories (mortality or growth inhibition)
Method: Example B3: Plutella xylostella (Diamond Back Moth)
(§1) 24-well microtiter plates with artificial diet were treated with aqueous test solutions prepared from 10′000 ppm DMSO stock solutions by pipetting. After drying, the plates were infested with L2 larvae (10 to 15 per well). The samples were assessed for mortality and growth inhibition in comparison to untreated samples 5 days after infestation.

[3] = test system: Diabrotica balteata (Corn Root Worm); experiment: Example B4: Diabrotica balteata, sprayed maize sprouts; conditions: 96 h, application rate of 200 ppm, L2 larvae, 4 days after infestation, read-out: effect in at least one of the two categories (mortality or growth inhibition)
Method: Example B4: Diabrotica balteata (Corn Root Worm)
as §1, with “Maize sprouts placed onto an agar layer in 24-well” for “24-well”, “plates” for “plates with artificial diet”, “spraying.” for “pipetting.”, “(6” for “(10”, “10” for “15”, “4” for “5”

[4] = test system: Myzus persicae (Green Peach Aphid); experiment: Example B5: Myzus persicae, sprayed sunflower leaf discs; conditions: foliar, 144 h, application rate of 200 ppm, aphid population of mixed ages, 6 days after infestation
Method: Example B5: Myzus persicae (Green Peach Aphid)
Sunflower leaf discs were placed onto agar in a 24-well microtiter plate and sprayed with aqueous test solutions prepared from 10′000 ppm DMSO stock solutions. After drying, the leaf discs were infested with an aphid population of mixed ages. The samples were assessed for mortality 6 days after infestation.

[5] = test system: Myzus persicae (Green Peach Aphid); experiment: Example B6: Myzus persicae, roots of pea seedlings in test solution; conditions: 144 h, test rate of 24 ppm, aphid population of mixed ages, 6 days after placing seedlings into test solutions
Method: Example B6: Myzus persicae (Green Peach Aphid)
Roots of pea seedlings infested with an aphid population of mixed ages were placed directly into aqueous test solutions prepared from 10′000 DMSO stock solutions. The samples were assessed for mortality 6 days after placing seedlings into test solutions.

[6] = test system: Bemisia tabaci (Cotton White Fly); experiment: Example B8: Bemisia tabaci, sprayed cotton leaf discs; conditions: foliar, 144 h, application rate of 200 ppm, adult white flies, 6 days after incubation
Method: Example B8: Bemisia tabaci (Cotton White Fly)
Cotton leaf discs were placed on agar in 24-well microtiter plates and sprayed with aqueous test solutions prepared from 10′000 ppm DMSO stock solutions. After drying the leaf discs were infested with adult white flies. The samples were checked for mortality 6 days after incubation.

[7] = test system: Euschistus heros (Neotropical Brown Stink Bug); experiment: Example B9: Euschistus heros, sprayed soybean leaves; conditions: 120 h, application rate of 200 ppm, N2 nymphs, 5 days after infestation, read-out: effect in at least one of the two categories (mortality or growth inhibition)
Method: Example B9: Euschistus heros (Neotropical Brown Stink Bug)
Soybean leaves on agar in 24-well microtiter plates were sprayed with aqueous test solutions prepared from 10′000 ppm DMSO stock solutions. After drying the leaves were infested with N2 nymphs. The samples were assessed for mortality and growth inhibition in comparison to untreated samples 5 days after infestation.

[8] = test system: Frankliniella occidentalis (Western Flower Thrips); experiment: Example B12: Frankliniella occidentalis, sprayed sunflower leaf discs; conditions: foliar, 168 h, application rate of 200 ppm, population of mixed ages, 7 days after infestation
Method: Example B12: Frankliniella occidentalis (Western Flower Thrips)
Sunflower leaf discs were placed on agar in 24-well microtiter plates and sprayed with aqueous test solutions prepared from […] stock solutions. After drying the leaf discs were infested with a Frankliniella population of mixed ages. The samples were assessed for mortality 7 days after infestation.

[9] = test system: Tetranychus urticae (Two-Spotted Spider Mite); experiment: Example B10: Tetranychus urticae, sprayed bean leaf discs; conditions: foliar, 192 h
Method: Example B10: Tetranychus urticae (Two-Spotted Spider Mite)
Bean leaf discs on agar in 24-well microtiter plates were sprayed with aqueous test solutions prepared from 10′000 ppm DMSO stock solutions. After drying the leaf discs were infested with a mite population of mixed ages. The samples were assessed for mortality on mixed population (mobile stages) 8 days after infestation.

CCS(=O)(=O)c1cc(C(F)(F)F)cnc1-c1nc2cc(S(=O)(=O)C(F)F)ncc2n1C [Compound P1, 6-(difluoromethylsulfonyl)-2-[3-ethylsulfonyl-5-(trifluoromethyl)-2-pyridyl]-3-methyl-imidazo[4,5-c]pyridine]
≥ 80%: percent control (mortality, anti-feedant effect or growth inhibition) at 200 ppm [1] | percent effect (mortality or growth inhibition) at 200 ppm [2] | percent effect (mortality or growth inhibition) at 200 ppm [3] | mortality at 200 ppm [4] | mortality at 24 ppm [5] | mortality at 200 ppm [6] | percent effect (mortality or growth inhibition) at 200 ppm [7]

CCS(=O)(=O)c1cc(C(F)(F)F)cnc1-c1nc2cc([S+]([O-])C(F)F)ncc2n1C (stereo not drawn) [Compound P2, 6-(difluoromethylsulfinyl)-2-[3-ethylsulfonyl-5-(trifluoromethyl)-2-pyridyl]-3-methyl-imidazo[4,5-c]pyridine]
≥ 80%: percent control (mortality, anti-feedant effect or growth inhibition) at 200 ppm [1] | percent effect (mortality or growth inhibition) at 200 ppm [2] | percent effect (mortality or growth inhibition) at 200 ppm [3] | mortality at 200 ppm [4] | mortality at 24 ppm [5] | mortality at 200 ppm [6] | percent effect (mortality or growth inhibition) at 200 ppm [7]

CCS(=O)(=O)c1cc(C(F)(F)F)cnc1-c1nc2cc(SC(F)F)ncc2n1C [Compound P3, 6-(difluoromethylsulfanyl)-2-[3-ethylsulfonyl-5-(trifluoromethyl)-2-pyridyl]-3-methyl-imidazo[4,5-c]pyridine]
≥ 80%: percent control (mortality, anti-feedant effect or growth inhibition) at 200 ppm [1] | percent effect (mortality or growth inhibition) at 200 ppm [2] | percent effect (mortality or growth inhibition) at 200 ppm [3] | mortality at 200 ppm [4] | mortality at 24 ppm [5] | mortality at 200 ppm [6] | percent effect (mortality or growth inhibition) at 200 ppm [7] | mortality at 200 ppm [8]

CCS(=O)(=O)c1cccnc1-c1nc2cc([S+]([O-])C(F)F)ncc2n1C (stereo not drawn) [Compound P4]
≥ 80%: percent effect (mortality or growth inhibition) at 200 ppm [3] | mortality at 200 ppm [4] | mortality at 24 ppm [5] | percent effect (mortality or growth inhibition) at 200 ppm [7]

CCS(=O)(=O)c1cccnc1-c1nc2cc(SC(F)F)ncc2n1C [Compound P6, 6-(difluoromethylsulfanyl)-2-(3-ethylsulfonyl-2-pyridyl)-3-methyl-imidazo[4,5-c]pyridine]
≥ 80%: percent effect (mortality or growth inhibition) at 200 ppm [3] | mortality at 200 ppm [4] | mortality at 24 ppm [5] | percent effect (mortality or growth inhibition) at 200 ppm [7]

CCS(=O)(=O)c1ccc(-n2cncn2)nc1-c1nc2cc(S(=O)(=O)C(F)F)ncc2n1C [Compound P7, 6-(difluoromethylsulfonyl)-2-[3-ethylsulfonyl-6-(1,2,4-triazol-1-yl)-2-pyridyl]-3-methyl-imidazo[4,5-c]pyridine]
≥ 80%: percent effect (mortality or growth inhibition) at 200 ppm [3] | mortality at 200 ppm [4] | mortality at 24 ppm [5] | percent effect (mortality or growth inhibition) at 200 ppm [7]

CCS(=O)(=O)c1ccc(-n2cncn2)nc1-c1nc2cc([S+]([O-])C(F)F)ncc2n1C (stereo not drawn) [Compound P8, 6-(difluoromethylsulfinyl)-2-[3-ethylsulfonyl-6-(1,2,4-triazol-1-yl)-2-pyridyl]-3-methyl-imidazo[4,5-c]pyridine]
≥ 80%: percent effect (mortality or growth inhibition) at 200 ppm [3] | mortality at 200 ppm [4] | mortality at 24 ppm [5] | mortality at 200 ppm [6] | percent effect (mortality or growth inhibition) at 200 ppm [7]

CCS(=O)(=O)c1ccc(-n2cncn2)nc1-c1nc2cc(SC(F)F)ncc2n1C [Compound P9, 6-(difluoromethylsulfanyl)-2-[3-ethylsulfonyl-6-(1,2,4-triazol-1-yl)-2-pyridyl]-3-methyl-imidazo[4,5-c]pyridine]
≥ 80%: percent control (mortality, anti-feedant effect or growth inhibition) at 200 ppm [1] | percent effect (mortality or growth inhibition) at 200 ppm [3] | mortality at 200 ppm [4] | mortality at 24 ppm [5] | mortality at 200 ppm [6] | percent effect (mortality or growth inhibition) at 200 ppm [7]

CCS(=O)(=O)c1cc(OC(C)C)cnc1-c1nc2cc(S(=O)(=O)C(F)F)ncc2n1C [Compound P10, 6-(difluoromethylsulfonyl)-2-(3-ethylsulfonyl-5-isopropoxy-2-pyridyl)-3-methyl-imidazo[4,5-c]pyridine]
≥ 80%: percent control (mortality, anti-feedant effect or growth inhibition) at 200 ppm [1] | percent effect (mortality or growth inhibition) at 200 ppm [2] | mortality at 200 ppm [4] | mortality at 24 ppm [5] | percent effect (mortality or growth inhibition) at 200 ppm [7] | mortality at 200 ppm [9]

CCS(=O)(=O)c1cc(OC(C)C)cnc1-c1nc2cc([S+]([O-])C(F)F)ncc2n1C (stereo not drawn) [Compound P11, 6-(difluoromethylsulfinyl)-2-(3-ethylsulfonyl-5-isopropoxy-2-pyridyl)-3-methyl-imidazo[4,5-c]pyridine]
≥ 80%: percent control (mortality, anti-feedant effect or growth inhibition) at 200 ppm [1] | percent effect (mortality or growth inhibition) at 200 ppm [2] | mortality at 200 ppm [4] | mortality at 24 ppm [5] | percent effect (mortality or growth inhibition) at 200 ppm [7] | mortality at 200 ppm [9]

CCS(=O)(=O)c1cc(OC(C)C)cnc1-c1nc2cc(SC(F)F)ncc2n1C [Compound P12, 6-(difluoromethylsulfanyl)-2-(3-ethylsulfonyl-5-isopropoxy-2-pyridyl)-3-methyl-imidazo[4,5-c]pyridine]
≥ 80%: percent control (mortality, anti-feedant effect or growth inhibition) at 200 ppm [1] | percent effect (mortality or growth inhibition) at 200 ppm [2] | percent effect (mortality or growth inhibition) at 200 ppm [3] | mortality at 200 ppm [4] | mortality at 24 ppm [5] | percent effect (mortality or growth inhibition) at 200 ppm [7]
